Measured values as given in PMC8113459, “Selective inhibition of cullin 3 neddylation through covalent targeting DCN1 protects mice from acetaminophen-induced liver toxicity” (Nature Communications, 2021).
“And” between values parts separate entries of the source, which are not always exact repeats. Equal entries are not always repeated.

Tests used:
mice = experiment: 14-day toxicity study in mice; assay type: in vivo, mouse; settings: for AdrenalGlands / Brain / Epidimydes (paired) / Heart / KidneyL / KidneyR / Liver / Spleen / Testes (paired) / Thymus: organ weight of individual male mouse, vehicle 20% PCP, in g (unit assumed); for AdrenalGlands / Brain / Epidimydes (paired) / Heart / KidneyL / KidneyR / Liver / Spleen / Testes (paired) / Thymus / RelGonads / Relative KidneyL / RelativeHeart / RelativeKidneyR / RelativeLiver / RelativeSpleen / RelativeThymus / RelAdrenGl / RelBrain / RelEpid: 50 mg/kg, 14 day; for RelGonads / Relative KidneyL / RelativeHeart / RelativeKidneyR / RelativeLiver / RelativeSpleen / RelativeThymus / RelAdrenGl / RelBrain / RelEpid: organ weight relative to whole animal, individual male mouse; for RelAdrenGl / RelBrain / RelEpid: in % (unit assumed)
Procedure: We evaluated DI-1859 for its potential toxicity in immunocompetent mice with daily, 50 mg/kg, intraperitoneal (IP) dosing for 14 consecutive days (Supplementary Table 3).
Supplementary Table 3. Overview Toxicity Study design DI-1859 study.
Group # # of Mice Drug Vol./ Test Article Treatment Diluent
(male/female) Route mouse dose Schedule

NQO1 mRNA = experiment: RT-PCR, NQO1 mRNA in THLE2 cells; assay type: cell-based, human; settings: for NQO1 mRNA level relative to control: THLE2, 10 nM, replicates
Procedure: Supplementary Figure 23. DI‐1859 increases the mRNA level of NRF2 ta rge te d genes NQO1 and
HO‐1. THLE2 cells we re treated with DI‐1859 at 10 nM fo r 4, 8 and 24 h. Tr e a t e d cells were
harvested and the mRNA level of HO‐1 and NQO1 we re exa m i n e d by RT‐PCR assay. The probes
Scientific (Ann Arbor, MI). Data are presented as mean values with n = 2 independent biological […]

[1] = mice, 50 mg/kg IP qD(1-14), mean ± s.d., n=5
[2] = serum, mice, 50 mg/kg IP qD(1-14), mean ± s.d., n=5

C=C(CN(C)C)C(=O)NC[C@@H](NC(=O)[C@H](Cc1nc2ccc(C(C)C)cc2s1)NC(=O)CC)C1CCCCC1 [DI-1859]
Relative organ weight, Adrenal glands (paired) (mice; [1]): 0.02 ± 0.01 % of body weight | Relative organ weight, Brain (mice; [1]): 1.76 ± 0.07 % of body weight | Relative organ weight, Epididymis (paired) (mice; [1]): 0.35 ± 0.05 % of body weight | Relative organ weight, Heart (mice; [1]): 0.45 ± 0.02 % of body weight | Relative organ weight, L kidney (mice; [1]): 0.71 ± 0.05 % of body weight | Relative organ weight, Liver (mice; [1]): 6.19 ± 0.19 % of body weight | Relative organ weight, R kidney (mice; [1]): 0.78 ± 0.04 % of body weight | Relative organ weight, Spleen (mice; [1]): 0.28 ± 0.04 % of body weight | Relative organ weight, Testes (paired) (mice; [1]): 0.86 ± 0.09 % of body weight | Relative organ weight, Thymus (mice; [1]): 0.16 ± 0.11 % of body weight | WBC (mice; [1]): 6.868 ± 3.993 10e3/ul | Microscopic finding, Epididymis: Sperm granuloma (mice; mice, 50 mg/kg IP, 14 days): 0/10 | Microscopic finding, Liver: Necrosis, random (mice; mice, 50 mg/kg IP, 14 days): 0/5 | Microscopic findings, Adrenal Glands (mice; mice, 50 mg/kg IP, 14 days): 0/8 | Microscopic findings, Cecum (mice; mice, 50 mg/kg IP, 14 days): 0/5 | Microscopic findings, Colon (mice; mice, 50 mg/kg IP, 14 days): 0/5 | Microscopic findings, Heart (mice; mice, 50 mg/kg IP, 14 days): 0/5 | Microscopic findings, Kidneys (mice; mice, 50 mg/kg IP, 14 days): 0/10 | Microscopic findings, Lung (mice; mice, 50 mg/kg IP, 14 days): 0/5 | Microscopic findings, Mesenteric lymph node (mice; mice, 50 mg/kg IP, 14 days): 0/5 | Microscopic findings, Pancreas (mice; mice, 50 mg/kg IP, 14 days): 0/5 | Microscopic findings, Small intestine (mice; mice, 50 mg/kg IP, 14 days): 0/5 | Microscopic findings, Spleen (mice; mice, 50 mg/kg IP, 14 days): 0/5 | Microscopic findings, Sternal bone marrow (mice; mice, 50 mg/kg IP, 14 days): 0/5 | Microscopic findings, Stomach (mice; mice, 50 mg/kg IP, 14 days): 0/5 | Microscopic findings, Thymus (mice; mice, 50 mg/kg IP, 14 days): 0/5 | Microscopic findings, Urinary bladder (mice; mice, 50 mg/kg IP, 14 days): 0/5 | AdrenalGlands (mice): 0.007 | Brain (mice): 0.448 | Epidimydes (paired) (mice): 0.106 | Heart (mice): 0.104 | KidneyL (mice): 0.187 | KidneyR (mice): 0.192 | Liver (mice): 1.500 | Spleen (mice): 0.075 | Testes (paired) (mice): 0.230 | Thymus (mice): 0.025 | AdrenalGlands (mice; listed as DI-1589, 50 mg/kg): 0.005 and 0.010 | Brain (mice; listed as DI-1589, 50 mg/kg): 0.465 and 0.450 and 0.445 and 0.462 | Epidimydes (paired) (mice; listed as DI-1589, 50 mg/kg): 0.091 and 0.076 and 0.086 and 0.084 | Heart (mice; listed as DI-1589, 50 mg/kg): 0.120 and 0.111 and 0.127 and 0.122 | KidneyL (mice; listed as DI-1589, 50 mg/kg): 0.188 and 0.165 and 0.173 and 0.199 | KidneyR (mice; listed as DI-1589, 50 mg/kg): 0.201 and 0.208 and 0.193 and 0.207 | Liver (mice; listed as DI-1589, 50 mg/kg): 1.540 and 1.722 and 1.680 | Spleen (mice; listed as DI-1589, 50 mg/kg): 0.063 and 0.074 and 0.062 and 0.093 | Testes (paired) (mice; listed as DI-1589, 50 mg/kg): 0.224 and 0.227 and 0.237 and 0.193 | Thymus (mice; listed as DI-1589, 50 mg/kg): 0.088 and 0.032 and 0.029 and 0.028 | RelGonads (mice): 0.935 | Relative KidneyL (mice): 0.760 | RelativeHeart (mice): 0.423 | RelativeKidneyR (mice): 0.780 | RelativeLiver (mice): 6.098 | RelativeSpleen (mice): 0.305 | RelativeThymus (mice): 0.102 | RelAdrenGl (mice): 0.028 | RelBrain (mice): 1.821 | RelEpid (mice): 0.431 | RelGonads (mice; listed as DI-1589, 50 mg/kg): 0.885 and 0.901 and 0.898 and 0.704 | Relative KidneyL (mice; listed as DI-1589, 50 mg/kg): 0.743 and 0.655 and 0.726 | RelativeHeart (mice; listed as DI-1589, 50 mg/kg): 0.474 and 0.440 and 0.481 and 0.445 | RelativeKidneyR (mice; listed as DI-1589, 50 mg/kg): 0.794 and 0.825 and 0.731 and 0.755 | RelativeLiver (mice; listed as DI-1589, 50 mg/kg): 6.087 and 6.111 and 6.523 and 6.131 | RelativeSpleen (mice; listed as DI-1589, 50 mg/kg): 0.249 and 0.294 and 0.235 and 0.339 | RelativeThymus (mice; listed as DI-1589, 50 mg/kg): 0.348 and 0.127 and 0.110 | RelAdrenGl (mice; listed as DI-1589, 50 mg/kg): 0.020 and 0.019 and 0.037 | RelBrain (mice; listed as DI-1589, 50 mg/kg): 1.838 and 1.786 and 1.686 | RelEpid (mice; listed as DI-1589, 50 mg/kg): 0.360 and 0.302 and 0.326 and 0.307 | ALT (mice; [2]): 28.2 ± 4.1 U/L | AST (mice; [2]): 50.8 ± 10.4 U/L | NQO1 mRNA level relative to control (NQO1 mRNA; 4 h (time from row order and b199)): 2.3 and 2 | NQO1 mRNA level relative to control (NQO1 mRNA; 8 h (time from row order and b199)): 2.7 and 2.6 | NQO1 mRNA level relative to control (NQO1 mRNA; 24 h (time from row order and b199)): 19.3 and 16 | increase of NQO1 mRNA level (NQO1 mRNA; THLE2 liver cells, qRT-PCR): 17 folds
